Assay results reported in patent US20080009418A1, “Selective Inhibitors” (Alchemia LTD., priority 2004, published 2008).

Key:
Details in all cases: compound at 10 μM
Human δ-opioid (DOP) = molecular target: T1, Human δ-opioid (DOP) (Homo sapiens, UniProt P41143); experiment: Radioligand binding, human δ-opioid (DOP) membranes, FlashPlate, [3H]-Bremazocine
T1 construct: purchased Perkin Elmer Biosignal
Method in brief: (§1)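 Cloned human receptor membranes were coated onto FlashPlate wells and incubated with radioligand and compound (added from a 0.5 mM DMSO daughter plate) for 1 hour at room temperature in the dark. Scintillation counting gave percent inhibition, with DMSO defining total and reference ligand defining non-specific binding.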

Human κ-Opioid (KOP) = molecular target: T2, Human κ-Opioid (KOP) (Homo sapiens, UniProt P41145); experiment: Radioligand binding, human κ-opioid (KOP) membranes, filtration, [3H]-Diprenorphine
T2 construct: purchased Perkin Elmer Biosignal
Method in brief: (§2)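 Filtration binding on cloned human receptor membranes (1 Unit/well), [125I]-Substance P for NK1 and [3H]-Diprenorphine for KOP, 1 h at room temperature. Filters PEI-presoaked, washed with cold 50 mM Tris-HCl pH 7.4, counted by scintillation; percent inhibition calculated, reference ligand defining non-specific binding.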

Human Melanocortin (MC3) = molecular target: T3, Human Melanocortin (MC3) (Homo sapiens, UniProt P41968); experiment: Radioligand binding, human melanocortin MC3 membranes, FlashPlate, [125I]-NDP-αMSH
T3 construct: purchased Perkin Elmer Biosignal
Method in brief: as §1

Human Melanocortin (MC4) = molecular target: T4, Human Melanocortin (MC4) (Homo sapiens, UniProt P32245); experiment: Radioligand binding, human melanocortin MC4 membranes, FlashPlate, [125I]-NDP-αMSH
T4 construct: purchased Perkin Elmer Biosignal
Method in brief: as §1

Human melanocortin (MC5) = molecular target: T5, Human melanocortin (MC5) (Homo sapiens, UniProt P33032); experiment: Radioligand binding, human melanocortin MC5 membranes, FlashPlate, [125I]-NDP-αMSH
T5 construct: purchased Perkin Elmer Biosignal
Method in brief: as §1

[1] = molecular target: T6, Human melanin-concentrating hormone (MCH1) (Homo sapiens, UniProt Q99705); experiment: Radioligand binding, human melanin-concentrating hormone MCH1 membranes, FlashPlate, [125I]-S36057
T6 construct: purchased Perkin Elmer Biosignal
Method in brief: as §1

Human μ-opioid (MOP) = molecular target: T7, Human μ-opioid (MOP) (Homo sapiens, UniProt P35372); experiment: Radioligand binding, human μ-opioid (MOP) membranes, FlashPlate, [3H]-Naloxone
T7 construct: purchased Perkin Elmer Biosignal
Method in brief: as §1

Human neurokinin (NK1) = molecular target: T8, Human neurokinin (NK1) (Homo sapiens, UniProt P25103); experiment: Radioligand binding, human neurokinin NK1 membranes, filtration, [125I]-Substance P
T8 construct: purchased Perkin Elmer Biosignal
Method in brief: as §2

[2] = molecular target: T9, Human neuropeptide Y (NPY-Y1) (Homo sapiens, UniProt P25929); experiment: Radioligand binding, human neuropeptide Y NPY-Y1 membranes, FlashPlate, [125I]-PYY
T9 construct: purchased Perkin Elmer Biosignal
T9 sequence (P25929 1-384): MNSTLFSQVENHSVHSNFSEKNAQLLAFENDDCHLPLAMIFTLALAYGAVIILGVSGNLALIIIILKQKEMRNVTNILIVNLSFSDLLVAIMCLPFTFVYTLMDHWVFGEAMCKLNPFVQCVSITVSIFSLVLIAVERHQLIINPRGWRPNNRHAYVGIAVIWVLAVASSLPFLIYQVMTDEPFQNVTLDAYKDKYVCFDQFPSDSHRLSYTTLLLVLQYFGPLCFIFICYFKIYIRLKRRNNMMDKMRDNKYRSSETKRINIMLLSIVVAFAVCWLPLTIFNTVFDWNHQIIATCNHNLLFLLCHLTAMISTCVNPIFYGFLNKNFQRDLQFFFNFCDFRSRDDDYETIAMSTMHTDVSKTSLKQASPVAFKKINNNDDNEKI
Method in brief: as §1

Human opioid (ORL1) = molecular target: T10, Human opioid (ORL1) (Homo sapiens, UniProt P41146); experiment: Radioligand binding, human opioid ORL1 membranes, FlashPlate, [125I]-Nociceptin
T10 construct: purchased Perkin Elmer Biosignal
Method in brief: as §1

Mouse urotensin (mUR2) = molecular target: T11, Mouse urotensin (mUR2) (Mus musculus, UniProt Q8VIH9); experiment: Radioligand binding, mouse urotensin mUR2 membranes, FlashPlate, [125I]-Urotensin II
T11 construct: purchased Perkin Elmer Biosignal
T11 sequence (Q8VIH9 1-385): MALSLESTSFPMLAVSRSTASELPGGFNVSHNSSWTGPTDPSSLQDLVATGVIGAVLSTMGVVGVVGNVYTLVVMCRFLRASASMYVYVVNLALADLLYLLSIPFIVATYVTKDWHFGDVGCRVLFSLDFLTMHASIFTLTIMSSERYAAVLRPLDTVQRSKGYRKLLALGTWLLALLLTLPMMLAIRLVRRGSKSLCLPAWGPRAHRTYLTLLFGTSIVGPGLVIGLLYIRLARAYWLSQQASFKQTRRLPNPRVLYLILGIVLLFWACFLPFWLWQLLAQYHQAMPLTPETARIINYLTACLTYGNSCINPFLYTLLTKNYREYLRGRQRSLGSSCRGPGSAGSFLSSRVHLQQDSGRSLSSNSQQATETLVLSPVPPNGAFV
Method in brief: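 Cloned mouse urotensin (mUR2) receptor membranes from Perkin Elmer Biosignal were immobilized in FlashPlate microplates using a proprietary coating. Each well got 19.5 μl buffer, then 0.5 μl of DMSO, reference ligand, or compound. Adding 5 μl of [125I]-Urotensin II, diluted to 5× final concentration in binding buffer, started binding. Plates were sealed with TopSeal-A and incubated 1 hour at room temperature in the dark. Wells were counted for 30 seconds each on a TopCount after a 60-second delay, and percentage inhibition was calculated.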

T4 sequence (P32245 whole entry): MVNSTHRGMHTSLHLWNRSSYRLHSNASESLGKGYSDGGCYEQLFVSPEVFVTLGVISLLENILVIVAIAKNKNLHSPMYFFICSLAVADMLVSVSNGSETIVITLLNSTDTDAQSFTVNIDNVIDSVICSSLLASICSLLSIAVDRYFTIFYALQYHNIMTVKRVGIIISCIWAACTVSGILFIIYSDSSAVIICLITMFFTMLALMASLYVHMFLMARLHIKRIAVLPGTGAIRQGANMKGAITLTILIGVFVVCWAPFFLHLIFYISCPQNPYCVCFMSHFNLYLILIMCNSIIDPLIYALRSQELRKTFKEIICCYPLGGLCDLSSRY
T3 sequence (P41968 whole entry): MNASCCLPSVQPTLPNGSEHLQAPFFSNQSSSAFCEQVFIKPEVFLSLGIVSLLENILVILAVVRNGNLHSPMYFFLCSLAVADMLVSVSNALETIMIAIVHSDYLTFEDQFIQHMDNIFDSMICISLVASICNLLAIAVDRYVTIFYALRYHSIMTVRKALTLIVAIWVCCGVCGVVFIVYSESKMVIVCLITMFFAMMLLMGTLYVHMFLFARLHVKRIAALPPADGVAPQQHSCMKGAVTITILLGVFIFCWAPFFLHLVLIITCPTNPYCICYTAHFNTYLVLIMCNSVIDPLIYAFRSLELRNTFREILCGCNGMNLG
T7 sequence (P35372 whole entry): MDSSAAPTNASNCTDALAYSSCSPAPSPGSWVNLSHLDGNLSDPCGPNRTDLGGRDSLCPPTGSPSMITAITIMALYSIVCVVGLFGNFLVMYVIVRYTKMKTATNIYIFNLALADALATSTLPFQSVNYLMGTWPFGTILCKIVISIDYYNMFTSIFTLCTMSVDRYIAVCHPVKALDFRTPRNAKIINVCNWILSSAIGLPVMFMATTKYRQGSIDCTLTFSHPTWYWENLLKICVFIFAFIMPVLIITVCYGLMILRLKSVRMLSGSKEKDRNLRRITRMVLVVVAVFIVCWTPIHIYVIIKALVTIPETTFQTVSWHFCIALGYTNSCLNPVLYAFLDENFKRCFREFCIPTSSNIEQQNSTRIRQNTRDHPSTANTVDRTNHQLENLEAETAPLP
T5 sequence (P33032 whole entry): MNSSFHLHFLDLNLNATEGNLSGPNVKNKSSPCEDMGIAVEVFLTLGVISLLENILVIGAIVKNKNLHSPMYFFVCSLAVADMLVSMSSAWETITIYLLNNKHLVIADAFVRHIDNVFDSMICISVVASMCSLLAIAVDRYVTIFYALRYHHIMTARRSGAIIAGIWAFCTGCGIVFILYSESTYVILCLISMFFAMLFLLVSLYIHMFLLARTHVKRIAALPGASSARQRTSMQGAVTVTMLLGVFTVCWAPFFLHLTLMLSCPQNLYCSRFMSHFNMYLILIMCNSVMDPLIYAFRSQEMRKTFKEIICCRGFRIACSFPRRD
T8 sequence (P25103 whole entry): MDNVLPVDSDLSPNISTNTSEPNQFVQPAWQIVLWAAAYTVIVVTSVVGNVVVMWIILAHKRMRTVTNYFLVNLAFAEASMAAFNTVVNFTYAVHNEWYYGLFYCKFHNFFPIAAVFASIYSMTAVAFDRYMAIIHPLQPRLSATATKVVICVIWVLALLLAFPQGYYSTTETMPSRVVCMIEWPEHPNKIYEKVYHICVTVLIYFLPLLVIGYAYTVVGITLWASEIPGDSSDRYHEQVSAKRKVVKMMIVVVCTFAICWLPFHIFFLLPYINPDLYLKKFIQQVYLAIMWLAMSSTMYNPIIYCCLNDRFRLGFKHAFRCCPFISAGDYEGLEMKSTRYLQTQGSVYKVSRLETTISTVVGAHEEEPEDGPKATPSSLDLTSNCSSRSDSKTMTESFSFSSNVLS
T1 sequence (P41143 whole entry): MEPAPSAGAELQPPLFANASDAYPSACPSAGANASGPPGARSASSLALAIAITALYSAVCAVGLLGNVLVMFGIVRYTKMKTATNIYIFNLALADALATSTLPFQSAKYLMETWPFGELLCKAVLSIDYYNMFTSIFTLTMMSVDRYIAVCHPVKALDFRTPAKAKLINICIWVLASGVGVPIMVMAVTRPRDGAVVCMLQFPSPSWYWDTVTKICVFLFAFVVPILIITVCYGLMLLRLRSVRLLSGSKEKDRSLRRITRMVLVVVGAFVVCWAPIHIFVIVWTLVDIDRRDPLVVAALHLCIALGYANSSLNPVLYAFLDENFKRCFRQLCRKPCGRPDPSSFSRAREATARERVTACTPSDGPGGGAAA
T10 sequence (P41146 whole entry): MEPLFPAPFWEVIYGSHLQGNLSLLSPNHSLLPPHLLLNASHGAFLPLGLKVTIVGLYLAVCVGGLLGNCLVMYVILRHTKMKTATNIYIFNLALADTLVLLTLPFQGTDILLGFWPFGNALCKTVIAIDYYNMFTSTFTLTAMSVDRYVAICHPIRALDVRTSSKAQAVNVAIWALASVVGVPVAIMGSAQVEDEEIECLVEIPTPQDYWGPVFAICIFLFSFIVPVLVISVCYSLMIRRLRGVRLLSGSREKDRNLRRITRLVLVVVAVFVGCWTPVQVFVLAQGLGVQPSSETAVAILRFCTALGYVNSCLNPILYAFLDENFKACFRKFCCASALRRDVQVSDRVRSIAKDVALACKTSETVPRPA
T6 sequence (Q99705 whole entry): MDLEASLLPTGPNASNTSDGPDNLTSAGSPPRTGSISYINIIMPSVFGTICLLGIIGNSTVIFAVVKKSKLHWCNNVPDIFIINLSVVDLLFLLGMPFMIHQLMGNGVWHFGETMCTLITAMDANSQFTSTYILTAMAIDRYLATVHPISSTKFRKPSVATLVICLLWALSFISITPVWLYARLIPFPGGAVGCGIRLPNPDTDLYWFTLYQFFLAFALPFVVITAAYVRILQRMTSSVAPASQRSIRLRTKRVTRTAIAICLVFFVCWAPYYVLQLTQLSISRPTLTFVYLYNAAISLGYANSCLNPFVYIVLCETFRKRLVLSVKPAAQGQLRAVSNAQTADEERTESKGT
T2 sequence (P41145 whole entry): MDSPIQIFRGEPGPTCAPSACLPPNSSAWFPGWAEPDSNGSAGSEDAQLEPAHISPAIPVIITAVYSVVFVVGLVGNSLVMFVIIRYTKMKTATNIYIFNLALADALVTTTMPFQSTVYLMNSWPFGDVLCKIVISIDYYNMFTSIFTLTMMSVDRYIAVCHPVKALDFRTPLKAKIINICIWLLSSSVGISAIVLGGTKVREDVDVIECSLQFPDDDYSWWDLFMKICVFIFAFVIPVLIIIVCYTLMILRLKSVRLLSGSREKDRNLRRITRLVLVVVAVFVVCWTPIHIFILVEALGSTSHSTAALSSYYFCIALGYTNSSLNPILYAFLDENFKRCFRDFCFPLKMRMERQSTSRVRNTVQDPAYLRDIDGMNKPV

CO[C@H]1[C@H](O)[C@@H](COCc2ccc(-c3ccccc3)cc2)OC(OCc2cccc(O)c2)[C@@H]1NC(=O)CNC(=N)N (stereo partly drawn) [compound 162]
A1 radioligand binding, percentage inhibition (Human δ-opioid (DOP); [3H]-Bremazocine): − (“−” indicates less than 50% inhibition at 10 μM)
A2 radioligand binding, percentage inhibition (Human κ-Opioid (KOP); [3H]-Diprenorphine): − (“−” indicates less than 50% inhibition at 10 μM)
A3 radioligand binding, percentage inhibition (Human Melanocortin (MC3); [125I]-NDP-αMSH): − (“−” indicates less than 50% inhibition at 10 μM)
A4 radioligand binding, percentage inhibition (Human Melanocortin (MC4); [125I]-NDP-αMSH): − (“−” indicates less than 50% inhibition at 10 μM)
A5 radioligand binding, percentage inhibition (Human melanocortin (MC5); [125I]-NDP-αMSH): − (“−” indicates less than 50% inhibition at 10 μM)
A6 radioligand binding, percentage inhibition ([1]; [125I]-S36057): − (“−” indicates less than 50% inhibition at 10 μM)
A7 radioligand binding, percentage inhibition (Human μ-opioid (MOP); [3H]-Naloxone): − (“−” indicates less than 50% inhibition at 10 μM)
A8 radioligand binding, percentage inhibition (Human neurokinin (NK1); [125I]-Substance P): + (“+” indicates greater than 50% inhibition at 10 μM)
A9 radioligand binding, percentage inhibition ([2]; [125I]-PYY): − (“−” indicates less than 50% inhibition at 10 μM)
A10 radioligand binding, percentage inhibition (Human opioid (ORL1); [125I]-Nociceptin): − (“−” indicates less than 50% inhibition at 10 μM)
A11 radioligand binding, percentage inhibition (Mouse urotensin (mUR2); [125I]-Urotensin II): − (“−” indicates less than 50% inhibition at 10 μM)

NCCCC(=O)NC1C(OCc2ccccc2)OC(COCc2ccccc2)C(O)C1OCc1ccc2ccccc2c1 (stereo not drawn) [compound 376]
A1: inhibition of radioligand binding, human δ-opioid (DOP) (Human δ-opioid (DOP); [3H]-Bremazocine): − (“−” indicates less than 50% inhibition at 10 μM)
A2: inhibition of radioligand binding, human κ-opioid (KOP) (Human κ-Opioid (KOP); [3H]-Diprenorphine): − (“−” indicates less than 50% inhibition at 10 μM)
A3: inhibition of radioligand binding, human melanocortin (MC3) (Human Melanocortin (MC3); [125I]-NDP-αMSH): − (“−” indicates less than 50% inhibition at 10 μM)
A4: inhibition of radioligand binding, human melanocortin (MC4) (Human Melanocortin (MC4); [125I]-NDP-αMSH): + (“+” indicates greater than 50% inhibition at 10 μM)
A5: inhibition of radioligand binding, human melanocortin (MC5) (Human melanocortin (MC5); [125I]-NDP-αMSH): + (“+” indicates greater than 50% inhibition at 10 μM)
A6: inhibition of radioligand binding, human melanin-concentrating hormone (MCH1) ([1]; [125I]-S36057): − (“−” indicates less than 50% inhibition at 10 μM)
A7: inhibition of radioligand binding, human μ-opioid (MOP) (Human μ-opioid (MOP); [3H]-Naloxone): − (“−” indicates less than 50% inhibition at 10 μM)
A8: inhibition of radioligand binding, human neurokinin (NK1) (Human neurokinin (NK1); [125I]-Substance P): + (“+” indicates greater than 50% inhibition at 10 μM)
A9: inhibition of radioligand binding, human neuropeptide Y (NPY-Y1) ([2]; [125I]-PYY): − (“−” indicates less than 50% inhibition at 10 μM)
A10: inhibition of radioligand binding, human opioid (ORL1) (Human opioid (ORL1); [125I]-Nociceptin): − (“−” indicates less than 50% inhibition at 10 μM)
A11: inhibition of radioligand binding, mouse urotensin (mUR2) (Mouse urotensin (mUR2); [125I]-Urotensin II): − (“−” indicates less than 50% inhibition at 10 μM)

COC[C@H]1OC(OCc2ccc(Cl)cc2)[C@H](NC(=O)CNC(=N)N)[C@@H](OCc2ccc3ccccc3c2)[C@@H]1O (stereo partly drawn) [compound 31]
A1 radioligand binding inhibition (Human δ-opioid (DOP); human δ-opioid (DOP) membranes): − (“−” indicates less than 50% inhibition at 10 μM)
A2 radioligand binding inhibition (Human κ-Opioid (KOP); human κ-opioid (KOP) membranes): − (“−” indicates less than 50% inhibition at 10 μM)
A3 radioligand binding inhibition (Human Melanocortin (MC3); human melanocortin MC3 membranes): + (“+” indicates greater than 50% inhibition at 10 μM)
A4 radioligand binding inhibition (Human Melanocortin (MC4); human melanocortin MC4 membranes): − (“−” indicates less than 50% inhibition at 10 μM)
A5 radioligand binding inhibition (Human melanocortin (MC5); human melanocortin MC5 membranes): + (“+” indicates greater than 50% inhibition at 10 μM)
A6 radioligand binding inhibition ([1]; human MCH1 membranes): − (“−” indicates less than 50% inhibition at 10 μM)
A7 radioligand binding inhibition (Human μ-opioid (MOP); human μ-opioid (MOP) membranes): + (“+” indicates greater than 50% inhibition at 10 μM)
A8 radioligand binding inhibition (Human neurokinin (NK1); human neurokinin NK1 membranes): − (“−” indicates less than 50% inhibition at 10 μM)
A9 radioligand binding inhibition ([2]; human NPY-Y1 membranes): − (“−” indicates less than 50% inhibition at 10 μM)
A10 radioligand binding inhibition (Human opioid (ORL1); human ORL1 membranes): − (“−” indicates less than 50% inhibition at 10 μM)
A11 radioligand binding inhibition (Mouse urotensin (mUR2); mouse urotensin mUR2 membranes): − (“−” indicates less than 50% inhibition at 10 μM)
